Assay results from patent US20250170154A1 (GreenStone Biosciences, Inc., priority 2023, published 2025).
Like-named read-outs stand apart in the source and are kept apart here.

Assays:
[1] = Intestinal stability, rat intestinal S9; format: in vitro ADME
Protocol: (§1) The stability of compounds 1 and 2, and the control compound 7-hydroxycoumarin, were measured using human, rat, and mouse intestinal S9 fractions (Xenotech). Test compound working solutions were prepared by diluting 5 μL of 10 mM stock solutions in DMSO with 495 μL AN. S9 solutions were prepared by diluting the obtained S9 solutions to 1.0 mg/mL in 100 mM potassium phosphate buffer at pH 7.4 containing 10 mM D-saccharic acid-1,4-lactone. An Apricot automation workstation was used to add 100 μL/well of S9 solution to all reaction plates (Blank, T0, T5, T15, T30, T45, T60 and NCF60); 2 μL/well of compound working solutions were added to all 96-well reaction plates except the blank (T0, T5, T15, T30, T45, T60, and NCF60); 600 μL/well of stop solution (4° C. ACN containing 200 ng/mL tolbutamide and 200 ng/mL labetalol as internal standards) was added to the T0 reaction plate; all plates were pre-incubated at 37° C. for 10 minutes; a cofactor regenerating system (98 μL/well) was added, excluding the NCF60 plate which instead received 98 μL/well of 100 mM potassium phosphate buffer. All plates were then incubated at 37° C. To terminate reactions, 600 μL/well of stop solution was applied at specific end time points. After sealing and a 10-minute shaking, plates were centrifuged at 4000 rpm and 4° C. for 20 minutes. Concurrently, 300 μL/well of HPLC grade water was loaded onto eight new 96-well bioanalysis plates. Post-centrifugation, 100 μL supernatant from each reaction plate was transferred to its corresponding bioanalysis plate, shaken for 10 minutes, and then subjected to LC-MS/MS analysis (Shimadzu LC-40D LC system coupled to a Sciex Qtrap 6500 Plus mass spectrometer, using both positive and negative ion modes).

[2] = Conjugate formation in intestinal S9 incubations; format: in vitro ADME, human, rat, mouse
Protocol: as §1, with “Concurrently, 300 μL/well of HPLC grade water was loaded onto eight new 96-well bioanalysis plates. Post-centrifugation, 100 μL supernatant from each reaction plate was transferred to its corresponding bioanalysis plate, shaken for 10 minutes, and then subjected to LC-MS/MS analysis (Shimadzu LC-40D LC system coupled to a Sciex Qtrap 6500 Plus mass spectrometer, using both positive and negative ion modes).” left out

[3] = Stability in simulated gastric fluid (SGF); format: in vitro ADME; details: SGF pH 1.2, 37° C., 2 μM
Protocol: The stability of compounds 1 to 4, and the control compound omeprazole, were measured in simulated gastric fluid (SGF: 0.2% w/v sodium chloride, 0.7% v/v hydrochloric acid, and 0.32% w/v pepsin in deionized water, pH 1.2±0.05). Stock solutions of the compounds (10 mM) were diluted to 200 μM in DMSO, then duplicate 2 μL aliquots added to 96-well plates for time points 0, 1, 2, 6, and 24 hours. SGF (198 μL) was added to all wells except those for time 0, to give a starting compound concentration of 2 μM; and the samples were incubated at 37° C. with agitation at 600 rpm for the prescribed times. After incubation, 200 μL of each sample was extracted and mixed with 400 μL cold ACN containing 200 ng/mL tolbutamide and labetalol as internal standards. The samples were centrifuged at […] for 20 minutes at 4° C., and the supernatants (60 μL) each diluted with purified water (180 μL) for LC/MS/MS analysis. The percentage of the test compound remaining at each time point was calculated based on the ratio of the peak area of the analyte to the internal standards.

[4] = Intestinal stability, mouse intestinal S9; format: in vitro ADME; details: intestinal S9 fraction
Protocol: as §1

[5] = Thermodynamic solubility in FaSSIF; format: physicochemical; details: thermodynamic from solid, room temperature, 24 hours shaking
Protocol: After shaking, the samples were centrifuged at 25° C. for 20 minutes at 4000 rpm. Filtrates were prepared using the Whatman Mini-UniPrep Syringeless Filter Device (PTFE filter media with polypropylene housing, pore size 0.45 μm) from Cytiva, and dilutions were performed as required. Quantification of all samples was carried out using an LC-UV system.

[6] = Intestinal stability, human intestinal S9; format: in vitro ADME
Protocol: as §1

[7] = Pharmacokinetics in the rat, dosing in solution; details: rat, in vivo, 25 mg/kg
[8] = Wang et al.; cited from earlier work
[9] = intestinal S9 fraction, pH 7.4, read-out: intrinsic clearance rate

| Structure (SMILES) | Percentage remaining at time: 1 hour [3] [%] | Percentage remaining at time: 2 hours [3] [%] | Percentage remaining at time: 6 hours [3] [%] | Percentage remaining at time: 24 hours [3] [%] | Percentage remaining at time: 0 [3] [%] | solubility at 24 h ([5]; read-out: Solubility) [mM] | solubility at 24 h ([5]; read-out: Solubility (μg/mL)) [µg/mL] | also measured |
| --- | --- | --- | --- | --- | --- | --- | --- | --- |
| O=c1c(-c2ccc(OCOP(=O)(O)O)cc2)coc2cc(O)cc(O)c12 [Compound 1, (4-(5,7-Dihydroxy-4-oxo-4H-chromen-3-yl)phenoxy)methyl dihydrogen phosphate] | 94.4 | 91.5 | 83.8 | 42.1 | 100 | 12.5 | 4770 | normalized control factor remaining [1]: 30.4%; half-life at 1 µM ([1]; intestinal S9 fraction, pH 7.4): 2.6 min; microsomal CLint at 1 µM [1, 9]: 526 µL/min/mg; formation of glucuronidation, sulfation, and glutathione conjugates [2]: noticeable absence; half-life at 1 µM ([4]; pH 7.4): 29.7 min; microsomal CLint at 1 µM ([4]; pH 7.4, read-out: intrinsic clearance rate): 46.7 µL/min/mg; normalized control factor remaining [6]: 24.9%; half-life at 1 µM ([6]; intestinal S9 fraction, pH 7.4): 28.7 min; microsomal CLint at 1 µM [6, 9]: 48.4 µL/min/mg; Cmax ([7]; male, SD): ~15 ng/mL; Tmax ([7]; male, SD): ~8 min; decline of plasma concentration of dosed compound [7]: very rapid decline in concentration |
| O=c1c(-c2ccc(O)cc2)coc2cc(OP(=O)(O)O)cc(O)c12 [Genistein-7-O-phosphate, genistein 7-O-phosphate, reference compound] |  |  |  |  |  | 3.57 | 1250 | bioavailability [8]: more bioavailable than aglyconic genistein; water solubility [8]: practically water soluble |
| COc1ccc2[nH]c([S+]([O-])Cc3ncc(C)c(OC)c3C)nc2c1 (stereo not drawn) [Omeprazole, omeprazole, reference compound] | 35.4 | 23.1 | 4.2 | 0 | 100 |  |  |  |
| O=c1c(-c2ccc(OCOP(=O)(O)O)cc2)coc2cc(OCOP(=O)(O)O)cc(O)c12 [Compound 3, ((5-Hydroxy-4-oxo-3-(4-((phosphonooxy)methoxy)phenyl)-4H-chromen-7-yl)oxy)methyl dihydrogen phosphate] | 95.1 | 101 | 96.1 | 51.4 | 100 | 10.2 | 5000 |  |
| CC(C)(CCCOP(=O)(O)O)C(=O)Oc1ccc(-c2coc3cc(O)cc(O)c3c2=O)cc1 [Compound 4, 4-(5,7-Dihydroxy-4-oxo-4H-chromen-3-yl)phenyl 2,2-dimethyl-5-(phosphonooxy)pentanoate] | 104 | 110 | 114 | 106 | 100 | 0.612 | 293 |  |
